# Target: T1, GABABR1a/GABABR2 heterodimer (Homo sapiens, UniProt O75899+Q9UBS5)
# T1 construct: expressed in transfected cells; membranes prepared from it)
# Experiment: [35S]-GTPγS binding assay, potency of PAM
# Type: biochemical
# Details: potency of the positive allosteric modulator; log EC50 for GABA plotted against log concentration of modulator
# Excerpt: GABABR1a and GABABR2 were cloned from human brain cDNA and subcloned into pCI-Neo(Promega) and pALTER-1 (Promega), respectively. A GABABR1a-Gαqi5 fusion protein expression vector was constructed using the pCI-Neo-GABABR1a cDNA plasmid and pLEC1-Gαqi5 (Molecular Devices, CA). In order to make the Gαqi5 pertussis toxin insensitive, Cys356 was mutated to Gly using standard PCR methodology with the primers 5′-[…]-3′ (forward) and 5′-GCGGCCG […]-3′ (reverse). The Gαqi5mut cDNA was ligated into the BamHI and NotI sites of pcDNA3.0 (Invitrogen). The GABAB R1a coding sequence was amplified by PCR from pCI-Neo-GABABR1a using the primers, 5′-[…]-3′ (forward) and 5′-[…]-3′ (reverse) and subcloned into the BamHI site of pcDNA3.0-Gαqi5mut. […]
# [^35S]-GTPγS binding assays were performed at 30° C. for 45 min in membrane buffer (100 mM NaCl, […], 1 mM EDTA, 5 mM HEPES, pH 7.4) containing 0.025 μg/μl of membrane protein (prepared from the cell lines described above) with 0.01% bovine serum albumin (fatty acid free), 10 μM GDP, 100 μM DTT and 0.53 nM [^35S]-GTPγS (Amersham Pharmacia Biotech) in a final volume of 200 μl. Nonspecific binding was determined in the presence of 20 μM GTPγS. […]
# T1 sequence (Q9UBS5 15-961 limits assumed): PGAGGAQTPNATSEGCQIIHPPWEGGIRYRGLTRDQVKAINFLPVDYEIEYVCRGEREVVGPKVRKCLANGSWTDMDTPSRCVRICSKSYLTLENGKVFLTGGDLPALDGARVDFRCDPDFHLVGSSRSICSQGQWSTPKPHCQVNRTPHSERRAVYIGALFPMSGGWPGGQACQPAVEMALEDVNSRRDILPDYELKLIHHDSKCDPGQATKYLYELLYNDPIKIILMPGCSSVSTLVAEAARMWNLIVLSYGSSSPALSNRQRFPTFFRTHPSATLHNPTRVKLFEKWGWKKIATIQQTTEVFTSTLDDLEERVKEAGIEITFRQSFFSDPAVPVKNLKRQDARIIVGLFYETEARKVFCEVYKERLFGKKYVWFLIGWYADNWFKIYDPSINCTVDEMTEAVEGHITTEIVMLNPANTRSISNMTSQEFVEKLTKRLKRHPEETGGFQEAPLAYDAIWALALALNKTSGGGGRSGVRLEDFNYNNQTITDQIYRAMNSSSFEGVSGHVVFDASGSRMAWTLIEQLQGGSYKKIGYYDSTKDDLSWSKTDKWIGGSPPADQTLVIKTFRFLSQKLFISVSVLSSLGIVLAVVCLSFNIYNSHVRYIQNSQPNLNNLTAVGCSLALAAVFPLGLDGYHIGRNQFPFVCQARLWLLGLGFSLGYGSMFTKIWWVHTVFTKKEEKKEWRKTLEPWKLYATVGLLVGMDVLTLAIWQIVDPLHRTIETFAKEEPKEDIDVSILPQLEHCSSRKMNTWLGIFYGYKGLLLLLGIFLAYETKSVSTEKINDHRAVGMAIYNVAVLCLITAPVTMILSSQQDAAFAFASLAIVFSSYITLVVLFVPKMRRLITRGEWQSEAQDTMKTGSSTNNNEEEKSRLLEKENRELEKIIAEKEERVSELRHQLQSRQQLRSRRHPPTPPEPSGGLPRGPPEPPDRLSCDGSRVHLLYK
# T1 sequence (O75899 42-941): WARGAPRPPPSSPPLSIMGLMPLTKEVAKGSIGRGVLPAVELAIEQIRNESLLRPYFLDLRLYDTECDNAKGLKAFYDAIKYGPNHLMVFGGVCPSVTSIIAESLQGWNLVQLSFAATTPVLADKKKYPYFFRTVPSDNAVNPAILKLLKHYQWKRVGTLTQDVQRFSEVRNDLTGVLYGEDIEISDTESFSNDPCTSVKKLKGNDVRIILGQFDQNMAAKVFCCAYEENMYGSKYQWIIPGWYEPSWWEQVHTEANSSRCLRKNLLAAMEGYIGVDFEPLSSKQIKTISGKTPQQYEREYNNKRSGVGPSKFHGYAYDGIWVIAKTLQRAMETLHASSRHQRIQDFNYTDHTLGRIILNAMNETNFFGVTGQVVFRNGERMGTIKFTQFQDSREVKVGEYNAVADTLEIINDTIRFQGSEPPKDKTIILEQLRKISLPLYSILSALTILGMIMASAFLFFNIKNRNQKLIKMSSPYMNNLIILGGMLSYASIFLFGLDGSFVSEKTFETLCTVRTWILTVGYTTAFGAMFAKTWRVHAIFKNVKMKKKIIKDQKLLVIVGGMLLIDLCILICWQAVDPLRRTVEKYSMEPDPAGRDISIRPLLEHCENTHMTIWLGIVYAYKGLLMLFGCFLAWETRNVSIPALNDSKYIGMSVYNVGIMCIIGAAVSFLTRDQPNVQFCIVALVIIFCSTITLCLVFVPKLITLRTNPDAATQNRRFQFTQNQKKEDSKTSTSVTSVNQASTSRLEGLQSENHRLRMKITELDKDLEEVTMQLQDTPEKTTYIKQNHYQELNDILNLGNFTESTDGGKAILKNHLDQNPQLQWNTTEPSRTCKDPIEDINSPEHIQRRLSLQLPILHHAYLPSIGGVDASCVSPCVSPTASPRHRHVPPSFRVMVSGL
smiles,measurement,value
"CCOC(=O)c1nc(C(C)C)sc1NC(=O)C(CC)c1ccccc1 (centres unmarked) [Example 16, Ethyl 2-isopropyl-5-[(2-phenylbutanoyl)amino]-1,3-thiazole-4-carboxylate]",EC50,1.96 µM
"CCOC(=O)c1nc(C(C)C)oc1NC(=O)c1ccc(C(C)(C)C)cc1 [Example 21, Ethyl 5-[(4-tert-butylbenzoyl)amino]-2-isopropyl-1,3-oxazole-4-carboxylate]",EC50,7.23 µM

# From patent US20080312291A1, “Heterocyclic Gaba-b Modulators” (priority 2005, published 2008)
